Where two headings read alike, the source gives them in different places.
Columns and labels:
Type in all cases: in vivo
Puccinia recondita = assay: Effect on Wheat brown rust (preventive spray test); details: 7 days after inoculation
Phytophthora infestans = details: Tomato late blight, 5 days after inoculation
[1] = test system: Psecidoperonospora cubensis; assay: Effect on Cucumber downy mildew (preventive spray test); details: 7 days after inoculation
Erysiphe graminis = assay: Effects on Barley powdery mildew (preventive spray test); details: lesions counted seven days after inoculation
[2] = conc. of active ingredient 4 ppm
[3] = conc. of active ingredient 20 ppm
[4] = conc. of active ingredient 100 ppm

SMILES | Preventive rate (%) (Puccinia recondita; [2]) | Preventive rate (%) (Puccinia recondita; [3]) | Preventive rate (%) (Puccinia recondita; [4]) | Preventive rate (%) [1, 3] [%] | Preventive rate (%) [1, 4] [%] | further results
CO/N=C(/C(=O)OC)c1ccccc1COc1ccc2c(c1C)OCC2=NOCC#N [a-48] | 100 | 100 | 100 | 100 | 100 | Preventive rate (%) (Phytophthora infestans; [3]): 81%; Preventive rate (%) (Phytophthora infestans; [4]): 94%
CNC(=O)C(=NOC)c1ccccc1COc1ccc2c(c1C)OCCC2=NOCC=C(C)C [c-67] | 100 | 100 | 100 |  |  | Preventive rate (%) (Erysiphe graminis; [3]): 100%; Preventive rate (%) (Erysiphe graminis; [4]): 100%
CO/N=C(/C(=O)OC)c1ccccc1COc1ccc2c(c1C)OCC2=NOCc1ccc(Cl)c(Cl)c1 [a-78] | 95 | 100 | 100 |  |  | 
CNC(=O)/C(=N/OC)c1ccccc1COc1ccc2c(c1C)OCC2=NOCc1ccccc1 [a-73] | 100 | 100 | 100 | 88 | 88 | Preventive rate (%) (Erysiphe graminis; [2]): 98%; Preventive rate (%) (Erysiphe graminis; [3]): 100%; Preventive rate (%) (Erysiphe graminis; [4]): 100%
CNC(=O)/C(=N/OC)c1ccccc1COc1ccc2c(c1C)OCC2=NOCC#N [a-49] | 100 | 100 | 100 | 100 | 100 | Preventive rate (%) (Phytophthora infestans; [3]): 97%; Preventive rate (%) (Phytophthora infestans; [4]): 97%; Preventive rate (%) [1, 2]: 88%
C#CCON=C1CCc2c1ccc(OCc1ccccc1C(=NOC)C(=O)OC)c2C [e-60] |  |  |  | 88 | 100 | 
CON=C(C(=O)OC)c1ccccc1COc1ccc2c(c1C)OCCC2=NOCc1ccc(Cl)c(Cl)c1 [c-78] |  | 96 | 100 |  |  | 
CON=C(C(=O)OC)c1ccccc1COc1ccc2c(c1C)OCCC2=NOC(C)(C)C [c-52] |  | 93 | 100 |  |  | 
CNC(=O)C(=NOC)c1ccccc1COc1ccc2c(c1C)OCCC2=NOCC#N [c-49] | 91 | 93 | 94 |  |  | 
CON=C(C(=O)OC)c1ccccc1COc1ccc2c(c1C)CCC2=NOCC=CCl [e-57] |  |  |  | 94 | 100 | 
CCc1cc2c(cc1OCc1ccccc1/C(=N\OC)C(=O)NC)OCC2=NOC [a-32] |  |  |  | 81 | 97 | Preventive rate (%) (Phytophthora infestans; [3]): 98%; Preventive rate (%) (Phytophthora infestans; [4]): 91%
CON=C(C(=O)OC)c1ccccc1COc1ccc2c(c1C)CCC2=NOC [e-15] |  | 98 | 99 | 95 | 100 | 
CO/N=C(/C(=O)OC)c1ccccc1COc1ccc2c(c1C)OCC2=NOCc1ccccc1 [a-72] |  | 100 | 100 |  |  | 
CCCCON=C1CCOc2c1ccc(OCc1ccccc1C(=NOC)C(=O)NC)c2C [c-43] |  | 93 |  |  |  | 
CON=C(C(=O)OC)c1ccccc1COc1ccc2c(c1C)OCCC2=NOCc1c(F)c(F)c(F)c(F)c1F [c-82] |  | 96 | 100 |  |  | Preventive rate (%) (Erysiphe graminis; [3]): 86%; Preventive rate (%) (Erysiphe graminis; [4]): 100%
CCc1c(OCc2ccccc2C(=NOC)C(=O)OC)ccc2c1OCCC2=NOC [c-29] | 96 | 100 | 100 |  |  | Preventive rate (%) (Erysiphe graminis; [3]): 95%; Preventive rate (%) (Erysiphe graminis; [4]): 99%
CON=C(C(=O)OC)c1ccccc1COc1ccc2c(c1C)OCCC2=NOCC#N [c-48] | 100 | 100 | 100 |  |  | 

SMILES | Preventive rate (%) (Puccinia recondita; [2]) | Preventive rate (%) (Puccinia recondita; [3]) | Preventive rate (%) (Puccinia recondita; [4]) | Preventive rate (%) [1, 3] [%] | Preventive rate (%) [1, 4] [%] | further results
CON=C1CCc2cc(OCc3ccccc3C(=NOC)C(=O)OC)ccc21 [e-4] |  | 98 |  |  |  | 
CON=C(C(=O)OC)c1ccccc1COc1ccc2c(c1)OCCC2=NOCC=CCl [c-63] |  | 99 | 100 |  |  | 
CON=C1CCOc2cc(OCc3ccccc3N(OC)C(=O)OC)ccc21 [c-7] |  | 99 | 100 | 94 | 100 | 
CNC(=O)C(OC)c1ccccc1COc1ccc2c(c1)OCCC2=NOC (racemic) [c-11] |  | 93 | 99 |  |  | 
C/C=C/CON=C1COc2c1ccc(OCc1ccccc1/C(=N\OC)C(=O)NC)c2C [a-65] |  | 100 | 100 | 94 | 100 | Preventive rate (%) (Phytophthora infestans; [3]): 97%; Preventive rate (%) (Phytophthora infestans; [4]): 100%
CNC(=O)/C(=N/OC)c1ccccc1COc1ccc2c(c1C)OCC2=NOCc1ccc(Cl)c(Cl)c1 [a-79] | 98 | 98 | 100 |  |  | 
CNC(=O)C(=NOC)c1ccccc1COc1ccc2c(c1C)OCCC2=NOCc1cccc(F)c1 [c-81] | 98 | 99 | 100 |  |  | Preventive rate (%) (Erysiphe graminis; [3]): 98%; Preventive rate (%) (Erysiphe graminis; [4]): 98%
CON=C(C(=O)OC)c1ccccc1COc1cc2c(cc1C)C(=NOC)CCO2 [c-26] |  | 98 | 99 | 100 | 100 | 
CNC(=O)/C(=N/OC)c1ccccc1COc1ccc2c(c1C)OCC2=NOCC(=O)OC [a-54] | 100 | 100 | 100 |  |  | 
CNC(=O)C(=NOC)c1ccccc1COc1ccc2c(c1C)OCCC2=NOCc1ccc(Cl)c(Cl)c1 [c-79] | 97 | 100 | 100 |  |  | Preventive rate (%) (Erysiphe graminis; [3]): 100%; Preventive rate (%) (Erysiphe graminis; [4]): 100%
CCc1cc2c(cc1OCc1ccccc1/C(=N\OC)C(=O)NC)OCC2=NOC (single isomer, unassigned) [a-31] |  |  |  |  |  | Preventive rate (%) (Erysiphe graminis; [3]): 99%; Preventive rate (%) (Erysiphe graminis; [4]): 100%
CON=C(C(=O)OC)c1ccccc1COc1ccc2c(c1C)OCCC2=NOCc1cccc(F)c1 [c-80] |  | 98 | 100 |  |  | 
CO/N=C(/C(=O)OC)c1ccccc1COc1ccc2c(c1C)OCC2=NOCC=C(C)C [a-66] | 100 | 100 | 100 |  |  | 
CNC(=O)C(=NOC)c1ccccc1COc1ccc2c(c1C)OCCC2=NOCc1cccc2ccccc12 [c-89] | 96 | 100 | 100 |  |  | Preventive rate (%) (Erysiphe graminis; [3]): 92%; Preventive rate (%) (Erysiphe graminis; [4]): 98%
CCc1cc2c(cc1OCc1ccccc1/C(=N\OC)C(=O)OC)OCC2=NOC (single isomer, unassigned) [a-29] |  |  |  | 97 | 97 | 
CON=C(C(=O)OC)c1ccccc1COc1cc2c(cc1C)C(=NOC)C(C)C2 (single isomer, unassigned) [f-9] |  |  |  | 100 | 100 | Preventive rate (%) (Phytophthora infestans; [3]): 93%; Preventive rate (%) (Phytophthora infestans; [4]): 98%; Preventive rate (%) [1, 2]: 100%
CON=C(C(=O)OC)c1ccccc1COc1ccc2c(c1C)OCCC2=NOCC=CCl [c-61] | 99 | 100 | 100 |  |  | 
